Common to all, as to type: cell-based
Data set [1] has as its system Staphylococcus aureus NRS384 (MRSA USA300). Kind of data set: Initial MIC screening, broth microdilution (CLSI). The following applies: for MIC: Staphylococcus aureus NRS384 (MRSA USA300), broth microdilution, visual reading. The method, boiled down:
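MRSA USA300 grown 24 h at 37 °C on tryptic soy agar, then adjusted to 5×10^5 CFU/ml in cation-adjusted Mueller-Hinton broth. Compounds serially diluted 64 to 0.5 μg/mL per CLSI broth microdilution; MIC recorded.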

The test system of data set [2] is Enterococcus faecalis ATCC 51299 (VRE). Kind of data set: MIC, Gram-positive panel. The conditions noted are these: Enterococcus faecalis ATCC 51299 (VRE); read-out: MIC. How it is done:
(§1) Next, the spectrum of antibacterial activity of compounds 144, 148, 149, 151, 155, 158, and 187 was examined against a panel of clinically relevant Gram-positive bacterial pathogens including methicillin-resistant Staphylococcus aureus (MRSA), vancomycin-resistant Staphylococcus aureus (VRSA), vancomycin-resistant Enterococcus faecalis and Enterococcus faecium (VRE), and Streptococcus pneumoniae. Bacterial strains were grown aerobically overnight on tryptone soya agar plates at 37° C. Afterwards, a bacterial solution equivalent to 0.5 McFarland standard was prepared and diluted in cation-adjusted Mueller-Hinton broth (CAMHB) (for staphylococci). Enterococci and Streptococci were diluted in tryptone soya broth (TSB) to achieve a bacterial concentration of about 5×10^5 CFU/mL and seeded in 96-well plates. Compounds and control drugs were added in the first row of 96-well plates and serially diluted with media containing bacteria. Plates were then, incubated aerobically at 37° C. for 18-20 hours (except for S. pneumoniae, which was incubated at 37° C. in presence of 5% CO2 for 18-20 hours).

The test system of data set [3] is Enterococcus faecium ATCC 700221 (VRE). The data set can be described thus: MIC, Gram-positive panel. The following applies: Enterococcus faecium ATCC 700221 (VRE); read-out: MIC. The procedure:
as §1

The test system of data set [4] is MRSA NRS 119. Kind of data set: MIC, Gram-positive panel. The following applies: Staphylococcus aureus; MRSA NRS 119; read-out: MIC. The procedure: as §1
Data set [5] concerns MRSA NRS 123. Kind of data set: MIC, Gram-positive panel. The conditions noted are these: Staphylococcus aureus; MRSA NRS 123; read-out: MIC. The procedure:
as §1

The test system of data set [6] is MRSA NRS 385. The data set can be described thus: MIC, Gram-positive panel. The following applies: Staphylococcus aureus; MRSA NRS 385; read-out: MIC. How it is done: as §1
The test system of data set [7] is MRSA NRS 386. Kind of data set: MIC, Gram-positive panel. The following applies: Staphylococcus aureus; MRSA NRS 386; read-out: MIC. The procedure: as §1
Data set [8] relates to Methicillin-resistant S. epidermidis NRS101. The data set can be described thus: MIC, Gram-positive panel. The conditions noted are these: Staphylococcus epidermidis; Methicillin-resistant S. epidermidis NRS101; read-out: MIC. The procedure:
as §1

Data set [9] has as its system Methicillin-resistant S. pneumoniae ATCC 700677. The data set can be described thus: MIC, Gram-positive panel. The following applies: Streptococcus pneumoniae, ATCC700677; Methicillin-resistant S. pneumoniae ATCC 700677; read-out: MIC. The procedure: as §1
Data set [10] concerns S. aureus ATCC 6538. The data set can be described thus: MIC, Gram-positive panel. The conditions noted are these: Staphylococcus aureus, ATCC6538; S. aureus ATCC 6538; read-out: MIC. The procedure:
as §1

The subject of data set [11] is S. aureus NRS 107. Kind of data set: MIC, Gram-positive panel. The conditions noted are these: Staphylococcus aureus, NRS107; S. aureus NRS 107; read-out: MIC. The procedure:
as §1

Data set [12] deals with S. pneumoniae ATCC 51916. Kind of data set: MIC, Gram-positive panel. The following applies: Streptococcus pneumoniae, ATCC51916; S. pneumoniae ATCC 51916; read-out: MIC. The procedure:
as §1

For data set [13], the system named is VRSA 10. Kind of data set: MIC, Gram-positive panel. The conditions noted are these: Staphylococcus aureus; VRSA 10; read-out: MIC. The procedure: as §1
The test system of data set [14] is VRSA 12. The data set can be described thus: MIC, Gram-positive panel. The following applies: Staphylococcus aureus; VRSA 12; read-out: MIC. How it is done: as §1
Data set [15] concerns human keratinocytes cell line (HaCaT cells). Kind of data set: In vitro cytotoxicity, MTS assay. The following applies: 2 h. How it is done: Compounds 144, 148, 149, 151, 155, and 158 were assayed (at concentrations of 16, 32, and 64 μg/mL) against a human keratinocytes cell line (HaCaT cells) to determine their in vitro potential toxic effect. Briefly, cells were cultured in Dulbecco's Modified Eagle Medium (DMEM) supplemented with 10% fetal bovine serum (FBS) and penicillin-streptomycin at 37° C. in presence of 5% CO2. Compounds were added in the first row of the 96-well plate. Control cells received DMSO alone at a concentration equivalent to that in drug-treated wells. The cells were incubated with the compounds (in triplicate) in a 96-well plate at 37° C. in presence of 5% CO2 for two hours. The assay reagent MTS 3-(4,5-dimethylthiazol-2-yl)-5-(3-carboxymethoxyphenyl)-2-(4-sulfophenyl)-2H-tetrazolium) (Promega, Madison, Wis., USA) was subsequently added and the plate was incubated for three to four hours. Absorbance readings (at OD490) were recorded using a kinetic microplate reader (Molecular Devices, Sunnyvale, Calif., USA). The quantity of viable cells after treatment with each compound was expressed as a percentage of the viability to DMSO-treated control cells (average of triplicate wells±standard deviation).
FIG. 2. Analyzing the toxicity of compounds 144, 148, 149, 151, 155 and 158 (tested in triplicates at 16, 32 and 64 μg/mL) against human keratinocytes cells (HaCaT) using the MTS 3-(4,5-dimethylthiazol-2-yl)-5-(3-carboxymethoxyphenyl)-2-(4-sulfophenyl)-2H-tetrazolium) assay. Results are presented as percent viable cells relative to DMSO (negative control to determine a baseline measurement for the cytotoxic impact of each compound). The absorbance values represent an average of three samples analyzed for each compound. Error bars represent standard deviation values. The data were analyzed via a two-way ANOVA with post-hoc Dunnett's test for multiple comparisons. An asterisk (*) denotes statistical significance (P<0.05) between results for compounds and DMSO.

[16] abbreviates: Staphylococcus aureus, read-out: MIC.

≈ marks a conversion by molar mass, not a printed value. Read-outs that look alike come from different tables or passages of the source. Bounds are passed on as bounds.

For the compound `C=C(C(=O)OC)C(c1cccc2ccccc12)C(O)c1ccccc1` (stereo not drawn) [Compound 144], the “potency compared with control antibiotic” value in [1] (MRSA USA300, Table 1 assay) is recorded as “potency similar to the oxazolidinone class of antimicrobial drug linezolid”. Further, the minimum inhibitory concentration (MIC) was 1 µg/mL (≈ 3.01 µM) in data set [1]; 1 to 2 µg/mL (≈ 3.01 to 6.02 µM) in data set [1] (setting [16]); greater than 64 µg/mL in [2]; 64 µg/mL (≈ 193 µM) in [3]; 1 µg/mL (≈ 3.01 µM) in data set [4]; 1 µg/mL (≈ 3.01 µM) in [5]. The MIC in data set [6], in data set [7], in data set [8], in data set [9], in [10] and in data set [11] was 1 µg/mL (≈ 3.01 µM) each time. Moreover, the minimal inhibitory concentration (MIC) in data set [12], in [13] and in data set [14] was 1 µg/mL (≈ 3.01 µM) each time. Moreover, in data set [15], the “tolerable concentration as multiple of MIC against MRSA” value is 16 to 32 times.
In the case of `C=C1C(=O)O[C@H](C2=CC=CCC2)[C@H]1c1cccc2ccccc12` [Compound 187], the MIC was 1 µg/mL (≈ 3.31 µM) in data set [1]; 1 to 2 µg/mL (≈ 3.31 to 6.61 µM) in data set [1] (setting [16]); greater than 64 µg/mL in data set [2]; greater than 64 µg/mL in [3]; 2 µg/mL (≈ 6.61 µM) in data set [4]; 2 µg/mL (≈ 6.61 µM) in data set [5]. Also, the MIC was 1 µg/mL (≈ 3.31 µM) in data set [6]; 1 µg/mL (≈ 3.31 µM) in data set [7]; 0.5 µg/mL (≈ 1.65 µM) in data set [8]; 1 µg/mL (≈ 3.31 µM) in data set [9]; 1 µg/mL (≈ 3.31 µM) in data set [10]; 1 µg/mL (≈ 3.31 µM) in data set [11]. Further, the MIC in [12] was found to be 1 µg/mL (≈ 3.31 µM); in [13], 1 µg/mL (≈ 3.31 µM); in data set [14], 2 µg/mL (≈ 6.61 µM). In data set [15], the “tolerable concentration as multiple of MIC against MRSA” value is reported as 16 to 32 times.

Values taken from patent publication US20210317099A1, “SAFER, POTENT, AND FAST ACTING ANTIMICROBIAL AGENTS” (Purdue Research Foundation, priority 2020, published 2021).
